# Assay results taken from patent US10968190B2, “Processes for preparing oxathiazin-like compounds” (GEISTLICH PHARMA AG, priority 2014, dated 2021).
# Where two headings read alike, the source gives them in different places.
# Legend:
# [1] = tested on: cancers identified herein; assay: Administration to patients having cancers (Example 5); assay type: in vivo; conditions: Example 5, present tense
# Protocol: Each of these compounds is administered with Vitamin D3, a derivative, metabolite or analog thereof and the combination is found to increase the anti-tumor effects of the compounds.
# [2] = tested on: PancTu I tumor; assay: PancTu I subcutaneous tumor model in nude mice; assay type: in vivo, nude mice (NMRI-Foxn1 nu/nu); conditions: 500 mg/kg i.p. on alternating days
# [3] = tested on: tumor stem cells; assay: Killing of tumor stem cells in tissue culture in vitro; assay type: cell-based
# [4] = tested on: multicellular pancreatic tumor (Panc Tul or BxPC-3) spheroids; assay: Pancreatic stem cell-like multicellular spheroid toxicity assay; assay type: cell-based; conditions: taurolidine 500 μM, compound 2250 1000 μM, 48 hours
# Description: Multicellular spheroids are composed of tumor cells growing in a 3-dimensional structure stimulating the growth, micro-environmental conditions and stem cell-like characteristics of real tumors. The multicellular tumor spheroid (MCTS) model compensates for many of the deficiencies seen in monolayer cultures. Spheroids on the scale of 200-500 μm develop chemical gradients of oxygen, nutrients, and catabolites, while having morphological and functional features similar to tumors. Therefore, assays utilizing the MCTS model allow for the assessment of drug penetration and are more predictive of in vivo success compared with monolayer cultures. MCTS assays are a tumor model system of intermediate complexity between standard monolayer and tumors in vivo.
# Pancreatic tumor cells (Panc Tu-1, BxPC-3, Mia Paca-2, ASPC1) and pancreatic primary tumor cells (Bo80) were seeded in ultra-low adhesion plates in special stem cell media.
# Pancreatic tumor cells (ASPC1, Mia Paca-2, Panc Tul, BxPC-3) and pancreatic primary tumor cells (Bo80) were raised in monolayer culture before seeding in ultra low adhesion plates under conditions of special stem cell media to form multicellular spheroids and passed through a cell strainer to exclude aggregates. […]
# [5] = tested on: murine SMA560 glioma cancer stem cells (CSC); conditions: for sensitivity of CSCs versus corresponding glioma bulk cells, based on EC50: mouse SMA 560 CSCs vs bulk cells
# Description: (§2) The mouse SMA560 glioma cell line was used to provide tumor bulk cells and CSCs. […] Mouse CSCs were generated from the SMA560 glioma cell line and cultured for 7 days.
# [6] = tested on: human glioblastoma bulk cells; conditions: Rodak et al., J. Neurosurg., 102, 1055-68, 2005; cited from earlier work
# [7] = tested on: MiaPaca2 tumor; assay: MiaPaca2 subcutaneous tumor model in nude mice; assay type: in vivo, nude mice (NMRI-Foxn1 nu/nu); conditions: 500 mg/kg i.p. on alternating days
# [8] = tested on: pancreatic primary tumors (Bo 73); assay: Xenograft model of pancreatic primary tumors Bo 73; assay type: in vivo; conditions: Bo 73, observed for 15 days; differences not statistically relevant
# Description: (§1) However, the differences in tumor volumes were not statistically relevant, likely due to the short duration of the study and the slow growth rate of the tumors.
# [9] = tested on: human glioma cell line LN-229; assay: Cytotoxicity assay in LN-229 cells (crystal violet); assay type: cell-based; conditions: for OD (absorbance at 540 nm; high values = high cell viability): 24 h
# Protocol: Cell lines: The human glioma cell line LN-229 was used as described previously (Rodak et al. 2005) as well as the human colon adenocarcinoma cell line SW480.
# Cytotoxicity assay: Dissociated LN-229 cells were seeded into 96-well plates at a density of 10^4 cells per well in 100 μl of culture medium. […] Triplicate cultures were prepared for each sample. After 24 h of incubation at […], the remaining adherent viable cells were stained using crystal violet as described (Rodack et al. 2005). Cell viability was determined by measuring the absorbancy at 540 nm. The results are expressed as killing rate given by the difference between 100% of cells and percentage of cells surviving. EC50 values correspond to the concentration inducing 50% cell death.
# [10] = tested on: pancreatic primary tumors (Bo 70); assay: Xenograft model of pancreatic primary tumors Bo 70; assay type: in vivo; conditions: Bo 70, observed for 23 days
# Description: as §1
# [11] = Half-life in human fresh blood in vitro by GC; assay type: in vitro ADME; conditions: same test, human blood
# [12] = Toxicity in mice during the tumor study; conditions: 500 mg/kg i.p. on alternating days
# Protocol: 1×10^7 tumor cells (PancTu-I and MiaPaca 2) were injected subcutaneously into the flank.
# Tumors were grown to a size of 200 mm^3 before the treatment was started. Mice were treated on alternating days with 500 mg/kg*body weight (BW).
# [13] = tested on: cancer stem cells (CSC) derived from four glioblastoma patients; assay: Cytotoxicity in cancer stem cells from glioblastoma patients; assay type: cell-based, human; conditions: for Cytotoxicity EC50, Mean ± SD: mean of CSCs from four glioblastoma patients
# Protocol: Tissue samples from high grade gliomas WHO grade IV from newly diagnosed patients (medium age of 54±10 years) were minced mechanically, digested enzymatically and the dissociated cells were filtered. The isolated tumor cells were cultured as bulk cells. Cancer Stem Cells (CSCs) were isolated by the formation of neurospheres under neurosphere conditions (using neurobasal medium) from the murine SMA 560 glioma cell line or from freshly isolated human glioblastoma cells.
# The number of remaining adherent cells were stained (crystal violet or Alamar Blue) and quantified by absorbance measurements (540 nm). Cell survival was expressed as the percentage of cells surviving relative to the number of cells surviving in untreated control cultures. The results are given as % killing rate or EC50 as the dose required for half-maximal cytotoxicity. Results
# CSCs were isolated from glioblastoma tissue resected from four patients. […].
# [14] = tested on: murine SMA 560 bulk glioma cells; conditions: SMA 560 bulk cells, 24 h and 48 h incubation
# Description: as §2
# [15] = Portnow et al., Clin Cancer Res 15, 7092-7098, 2009; cited from earlier work
smiles,measurement,setting,value
O=S1(=O)CCN(CN2COCCS2(=O)=O)CN1 [B1],effectiveness in treating cancers in patients,[1],effective in treating such cancers
same,safety for use in patients,[1],safe for use in patients
O=S1(=O)CCOCO1 [A3],effectiveness in treating cancers in patients,[1],effective in treating such cancers
same,safety for use in patients,[1],safe for use in patients
O=S1(=O)CCN(CN2CCS(=O)(=O)OC2)CN1 [B2],effectiveness in treating cancers in patients,[1],effective in treating such cancers
same,safety for use in patients,[1],safe for use in patients
CN1COCCS1(=O)=O [compound 2255],effectiveness in treating cancers in patients,[1],effective in treating such cancers
same,safety for use in patients,[1],safe for use in patients
O=S1(=O)CCNCO1 [A1],effectiveness in treating cancers in patients,[1],effective in treating such cancers
same,safety for use in patients,[1],safe for use in patients
O=S1(=O)CCN(CN2CCS(=O)(=O)NC2)CN1 [taurolidine],decrease of PancTu I tumor volume compared to control,[2],about 3 fold
same,concentration effective at killing tumor stem cells,[3],0.01 µg/mL
same,effect on pancreatic stem cell like multicellular spheroid cultures,[4],antineoplastic effect
same,"sensitivity of CSCs versus corresponding glioma bulk cells, based on EC50",[5],about 3 fold
same,EC50,[6],~50 µg/mL
same,decrease of MiaPaca2 tumor volume compared to control,[7],about 2 fold
same,relative tumor volume compared to control,[8],slightly reduced relative tumor volume compared to control
same,OD (absorbance at 540 nm; high values = high cell viability),[9]; 4 μg/ml,1.530
same,OD (absorbance at 540 nm; high values = high cell viability),[9]; 8 μg/ml,1.478
same,OD (absorbance at 540 nm; high values = high cell viability),[9]; 15.5 μg/ml,1.434
same,OD (absorbance at 540 nm; high values = high cell viability),[9]; 31 μg/ml,1.132
same,OD (absorbance at 540 nm; high values = high cell viability),[9]; 62.5 μg/ml,0.317
same,OD (absorbance at 540 nm; high values = high cell viability),[9]; 250 μg/ml,0.165
same,OD (absorbance at 540 nm; high values = high cell viability),[9]; 500 μg/ml,0.098
same,OD (absorbance at 540 nm; high values = high cell viability),[9]; 1000 μg/ml,0.109
same,EC50,"[9]; Homo sapiens, LN-229, 24 h, LN-229 cells, 24 h incubation, read-out: EC50 (concentration inducing 50% cell death)",45 µg/mL
same,EC50 (concentration inducing 50% cell death),"[9]; LN-229 cells, 24 h incubation",50 µg/mL
same,tumor volume compared to control,[10],significantly reduce tumor volume compared to control
same,half-life,[11],~30 min
same,toxic effect on the mice during the study,[12],no toxic effect
same,EC50,"[13]; Homo sapiens, 24 h, read-out: Cytotoxicity EC50 (μg/ml) 24 h, CSC GBM #4, 24 h",12.5 µg/mL
same,EC50,"[13]; Homo sapiens, 24 h, read-out: Cytotoxicity EC50 (μg/ml) 24 h, CSC GBM #5, 24 h",14 µg/mL
same,EC50,"[13]; Homo sapiens, 24 h, read-out: Cytotoxicity EC50, Mean ± SD, mean of CSCs from four glioblastoma patients, 24 h",13 ± 2 µg/mL
same,EC50,"[13]; Homo sapiens, GBM3, 24 h, read-out: Cytotoxicity EC50 (μg/ml) 24 h, CSC GBM #3, 24 h",15 µg/mL
same,EC50,"[13]; Homo sapiens, GBM6, 24 h, read-out: Cytotoxicity EC50 (μg/ml) 24 h, CSC GBM #6, 24 h",10 µg/mL
O=S1(=O)CCNCN1 [taurultam],"sensitivity of CSCs versus corresponding glioma bulk cells, based on EC50",[5],~2 fold
same,Cytotoxicity EC50,"[5]; murine CSCs cultured 7 days, 24 hours treatment",10 µg/mL
same,EC50,[6],~50 µg/mL
same,Cytotoxicity EC50,[14],19.3 µg/mL
same,Cytotoxicity EC50 (μg/ml) 24 h,"[13]; CSC GBM #3, 24 h",10.5 µg/mL
same,Cytotoxicity EC50 (μg/ml) 24 h,"[13]; CSC GBM #4, 24 h",12.5 µg/mL
same,Cytotoxicity EC50 (μg/ml) 24 h,"[13]; CSC GBM #5, 24 h",11 µg/mL
same,Cytotoxicity EC50 (μg/ml) 24 h,"[13]; CSC GBM #6, 24 h",9 µg/mL
same,"Cytotoxicity EC50, Mean ± SD",[13]; 24 h,11 ± 1.4 µg/mL
same,"Cytotoxicity EC50, Mean ± SD","[13]; 24 h, listed as Taurultam",11 ± 1.4 µg/mL
O=S1(=O)CCN(CN2CCS(=O)(=O)OC2)CO1 [B3],effectiveness in treating cancers in patients,[1],effective in treating such cancers
same,safety for use in patients,[1],safe for use in patients
Cn1nnc2c(C(N)=O)ncn2c1=O [temozolamide],Cytotoxicity EC50 (μg/ml) 24 h,"[13]; CSC GBM #3, 24 h",84.4 µg/mL
same,EC50,"[13]; CSC GBM #3, 24 h, read-out: Cytotoxicity EC50 24 h",435 µM
same,Cytotoxicity EC50 (μg/ml) 24 h,"[13]; CSC GBM #4, 24 h",97 µg/mL
same,EC50,"[13]; CSC GBM #4, 24 h, read-out: Cytotoxicity EC50 24 h",500 µM
same,Cytotoxicity EC50 (μg/ml) 24 h,"[13]; CSC GBM #5, 24 h",48.5 µg/mL
same,EC50,"[13]; CSC GBM #5, 24 h, read-out: Cytotoxicity EC50 24 h",250 µM
same,Cytotoxicity EC50 (μg/ml) 24 h,"[13]; CSC GBM #6, 24 h",44 µg/mL
same,EC50,"[13]; CSC GBM #6, 24 h, read-out: Cytotoxicity EC50 24 h",230 µM
same,"Cytotoxicity EC50, Mean ± SD",[13]; 24 h,68.5 ± 26 µg/mL
same,peak plasma levels measured in patients,[15],13.7 µg/mL
O=S1(=O)CCOCN1CN1COCCS1(=O)=O [compound 2245],effectiveness in treating cancers in patients,[1],effective in treating such cancers
same,safety for use in patients,[1],safe for use in patients
